# Where “and” joins values, the source holds several entries; their conditions need not be identical. Identical values can stand only once. Like-named read-outs stand apart in the source and are kept apart here.
# Columns and labels:
# Type in all cases: in vivo, mice
# [1] = Plasma and brain levels (pK/pD analysis); conditions: for concentration at 0.5 h / concentration at 1 h: mouse; for concentration at 0.5 h: subcutaneous; for concentration at 1 h: intraperitoneal
# Experimental: In various tests, animals were sacrificed following testing, and trunk blood and/or brain tissue (whole brains) was collected for quantification of drug levels. Immediately after testing, animals were decapitated and trunk blood was collected into a BD Vacutainer® tube containing K2EDTA and chilled on ice until centrifugation. Following centrifugation (13000-18000 rpm, 5-7 min), the plasma was removed and transferred to a labeled microcentrifuge tube and stored at −80° C. For brain tissue collection, brains were removed immediately following decapitation and flash frozen. The frozen sample was placed in a labeled centrifuge tube and stored at −80° C.
# In addition to recording the efficacy and toxicity data for these compounds alone or in combination, both plasma and brain samples were collected from each of the groups for pharmacokinetic/pharmacokinetic analysis.
# [2] = tested on: 6 Hz (32 mA) psychomotor seizures; experiment: 6 Hz psychomotor seizure test, 32 mA (incl. TPE determination); conditions: for ED50: Mus musculus, read-out: ED50 (95% CI) 32 mA
# In short: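 Mice dosed s.c. into a loose skin fold (one compound p.o.) at 0.01 mL/g body weight. Focal seizures induced by corneal stimulation (6 Hz, 0.2 msec rectangular pulse, 3 sec) at 32 mA; absence of stun, forelimb clonus, vibrissae twitching and Straub-tail scored as protection. TPE determined in this assay; ED50 from evenly spaced doses.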
# [3] = Minimal motor impairment (rotarod)
# [4] = LEV 10 mg/kg combined with Co. No. 2 3 mg/kg, 6 Hz 44 mA
compound,measurement,setting,value
Fc1ccc(N2CCN(Cc3ccn4c(CC5CC5)nnc4c3C(F)(F)F)CC2)c(F)c1 [Co. No. 1],"Mean Plasma Level Co. No. 1, statistical outlier removed",[1]; Co. No. 1 2.5 mg/kg combined with LEV 10 mg/kg,(390) ng/ml
same,concentration at 0.5 h,"[1]; plasma, 2.5 mg/kg, Mean Plasma Levels (non-combination) Co. No. 1, Co. No. 1 2.5 mg/kg alone",438 ng/mL
same,concentration at 0.5 h,"[1]; plasma, Mean Plasma Level Co. No. 1, Co. No. 1 2.5 mg/kg combined with LEV 10 mg/kg",657 ng/mL
same,# protected/# tested,"[2]; 0.5 mg/kg s.c., 0.5 h",1/8
same,# protected/# tested,"[2]; 2.5 mg/kg s.c., 0.25 h",1/8
same,# protected/# tested,"[2]; 2.5 mg/kg s.c., 0.5 h",5/8 and 7/16
same,# protected/# tested,"[2]; 5 mg/kg s.c., 0.25 h",8/12
same,# protected/# tested,"[2]; 5 mg/kg s.c., 0.5 h",8/12
same,# protected/# tested,"[2]; 10 mg/kg s.c., 0.25 h",4/4
same,# protected/# tested,"[2]; 10 mg/kg s.c., 0.5 h",4/4 and 7/8
same,# protected/# tested,"[2]; 10 mg/kg s.c., 1 h",3/4
same,# protected/# tested,"[2]; 10 mg/kg s.c., 2 h",0/4
same,# protected/# tested,"[2]; 10 mg/kg s.c., 4 h",0/4
same,# protected/# tested,"[2]; 20 mg/kg s.c., 0.5 h",8/8
same,ED50,"[2]; sc, at TPE",2.8 mg/kg
same,ED50 (95% CI) 32 mA,"[2]; s.c., at TPE",ED50 (95% CI): 2.8 mg/kg (1.3 to 4.3)
same,# rotarod motor impairment/# tested,"[3]; 0.5 mg/kg s.c., 0.5 h, 32 mA group",0/8
same,# rotarod motor impairment/# tested,"[3]; 2.5 mg/kg s.c., 0.25 h, 32 mA group",0/0
same,# rotarod motor impairment/# tested,"[3]; 2.5 mg/kg s.c., 0.5 h, 32 mA group",0/0 and 0/16
same,# rotarod motor impairment/# tested,"[3]; 2.5 mg/kg s.c., 0.5 h, 44 mA group",0/8
same,# rotarod motor impairment/# tested,"[3]; 5 mg/kg s.c., 0.25 h, 32 mA group",0/0
same,# rotarod motor impairment/# tested,"[3]; 5 mg/kg s.c., 0.5 h, 32 mA group",0/0 and 0/12
same,# rotarod motor impairment/# tested,"[3]; 10 mg/kg s.c., 0.25 h, 32 mA group",0/0
same,# rotarod motor impairment/# tested,"[3]; 10 mg/kg s.c., 0.5 h, 32 mA group",0/0 and 0/8
same,# rotarod motor impairment/# tested,"[3]; 10 mg/kg s.c., 0.5 h, 44 mA group",0/8
same,# rotarod motor impairment/# tested,"[3]; 10 mg/kg s.c., 1 h, 32 mA group",0/0
same,# rotarod motor impairment/# tested,"[3]; 10 mg/kg s.c., 2 h, 32 mA group",0/0
same,# rotarod motor impairment/# tested,"[3]; 10 mg/kg s.c., 4 h, 32 mA group",0/0
same,# rotarod motor impairment/# tested,"[3]; 15 mg/kg s.c., 0.5 h, 44 mA group",0/8
same,# rotarod motor impairment/# tested,"[3]; 20 mg/kg s.c., 0.5 h, 32 mA group",1/8
same,# rotarod motor impairment/# tested,"[3]; 20 mg/kg s.c., 0.5 h, 44 mA group",1/8
"C[C@H](Oc1ccc(F)cc1F)c1ccn2c(CC3CC3)nnc2c1C(F)(F)F [Co. No. 6-b, 3-(Cyclopropylmethyl)-7-[(1S)-1-(2,4-difluorophenoxy)ethyl]-8-(trifluoromethyl)[1,2,4]triazolo[4,3-a]pyridine]",# protected/# tested,"[2]; 2.5 mg/kg p.o., 0.5 h",1/8
same,# protected/# tested,"[2]; 5 mg/kg p.o., 0.5 h",2/8
same,# protected/# tested,"[2]; 10 mg/kg p.o., 0.25 h",1/4
same,# protected/# tested,"[2]; 10 mg/kg p.o., 0.5 h",3/4 and 6/8
same,# protected/# tested,"[2]; 10 mg/kg p.o., 1 h",0/4
same,# protected/# tested,"[2]; 10 mg/kg p.o., 2 h",1/4
same,# protected/# tested,"[2]; 10 mg/kg p.o., 4 h",0/4
same,# protected/# tested,"[2]; 20 mg/kg p.o., 0.25 h",4/4
same,# protected/# tested,"[2]; 20 mg/kg p.o., 0.5 h",3/4 and 7/8
same,# protected/# tested,"[2]; 20 mg/kg p.o., 1 h",4/4
same,# protected/# tested,"[2]; 20 mg/kg p.o., 2 h",0/4
same,# protected/# tested,"[2]; 20 mg/kg p.o., 4 h",1/4
same,ED50,"[2]; po, 0.5 h, p.o., 0.5 h TPE",7.2 mg/kg
same,ED50 (95% CI) 32 mA,"[2]; p.o., 0.5 h TPE",ED50 (95% CI): 7.2 mg/kg (4.2 to 11.8)
same,# rotarod motor impairment/# tested,"[3]; 2.5 mg/kg p.o., 0.5 h, 32 mA group",0/8
same,# rotarod motor impairment/# tested,"[3]; 5 mg/kg p.o., 0.5 h, 32 mA group",0/8
same,# rotarod motor impairment/# tested,"[3]; 10 mg/kg p.o., 0.25 h, 32 mA group",0/4
same,# rotarod motor impairment/# tested,"[3]; 10 mg/kg p.o., 0.5 h, 32 mA group",0/4 and 0/8
same,# rotarod motor impairment/# tested,"[3]; 10 mg/kg p.o., 0.5 h, 44 mA group",0/8
same,# rotarod motor impairment/# tested,"[3]; 10 mg/kg p.o., 1 h, 32 mA group",0/4
same,# rotarod motor impairment/# tested,"[3]; 10 mg/kg p.o., 2 h, 32 mA group",0/4
same,# rotarod motor impairment/# tested,"[3]; 10 mg/kg p.o., 4 h, 32 mA group",0/4
same,# rotarod motor impairment/# tested,"[3]; 15 mg/kg p.o., 0.5 h, 44 mA group",0/8
same,# rotarod motor impairment/# tested,"[3]; 20 mg/kg p.o., 0.25 h, 32 mA group",0/4
same,# rotarod motor impairment/# tested,"[3]; 20 mg/kg p.o., 0.5 h, 32 mA group",0/4 and 0/8
same,# rotarod motor impairment/# tested,"[3]; 20 mg/kg p.o., 0.5 h, 44 mA group",0/8
same,# rotarod motor impairment/# tested,"[3]; 20 mg/kg p.o., 1 h, 32 mA group",0/4
same,# rotarod motor impairment/# tested,"[3]; 20 mg/kg p.o., 2 h, 32 mA group",0/4
same,# rotarod motor impairment/# tested,"[3]; 20 mg/kg p.o., 4 h, 32 mA group",0/4
same,# rotarod motor impairment/# tested,"[3]; 40 mg/kg p.o., 0.5 h, 44 mA group",0/8
"CC[C@@H](C(N)=O)N1CCCC1=O [LEV, (S)-2-(2-oxopyrrolidin-1-yl) butanamide, reference compound]","Plasma (ng/ml) LEV, individual mice","[1]; LEV 10 mg/kg combined with Co. No. 1 2.5 mg/kg, 6 Hz 44 mA",9780 ng/ml (2×) and 13700 ng/ml and 10100 ng/ml and 9350 ng/ml and 8580 ng/ml and 10900 ng/ml
same,"Brain (ng/ml) LEV, individual mice",[1]; [4],4760 ng/mL and 6380 ng/mL and 3960 ng/mL and 6290 ng/mL and 7990 ng/mL
same,"Plasma (ng/ml) LEV, individual mice",[1]; [4],3540 ng/mL and 3850 ng/mL and 7150 ng/mL and 3890 ng/mL and 6450 ng/mL and 8200 ng/mL
same,concentration at 1 h,"[1]; brain, 10 mg/kg, LEV 10 mg/kg alone (Co. No. 2 study), read-out: Mean Brain Level (non-combination) LEV",5770 ng/mL
same,concentration at 1 h,"[1]; brain, LEV 10 mg/kg combined with Co. No. 2 3 mg/kg, read-out: Mean Brain Level LEV",5880 ng/mL
same,concentration at 1 h,"[1]; plasma, 10 mg/kg, LEV 10 mg/kg alone (Co. No. 1 study), read-out: Mean Plasma Levels (non-combination) LEV",8250 ng/mL
same,concentration at 1 h,"[1]; plasma, 10 mg/kg, LEV 10 mg/kg alone (Co. No. 2 study), read-out: Mean Plasma Level (non-combination) LEV",8750 ng/mL
same,concentration at 1 h,"[1]; plasma, LEV 10 mg/kg combined with Co. No. 1 2.5 mg/kg, 6 Hz 44 mA, read-out: Plasma (ng/ml) LEV, individual mice",10300 ng/mL
same,concentration at 1 h,"[1]; plasma, LEV 10 mg/kg combined with Co. No. 1 2.5 mg/kg, read-out: Mean Plasma Level LEV",10300 ng/mL
same,concentration at 1 h,"[1]; plasma, LEV 10 mg/kg combined with Co. No. 2 3 mg/kg, read-out: Mean Plasma Level LEV",5510 ng/mL
same,# motortox/# tested,"[3]; LEV alone 10 mg/kg i.p., 1 h, 44 mA group",0/6 and 0/8
same,# rotarod motor impairment/# tested,[3]; LEV alone 200 mg/kg,0/8
same,# rotarod motor impairment/# tested,"[3]; LEV alone 200 mg/kg i.p., 44 mA group",0/8
same,# rotarod motor impairment/# tested,"[3]; LEV alone 350 mg/kg i.p., 44 mA group",0/8
same,# rotarod motor impairment/# tested,[3]; LEV alone 400 mg/kg,0/9
same,# rotarod motor impairment/# tested,"[3]; LEV alone 400 mg/kg i.p., 44 mA group",0/9
same,# rotarod motor impairment/# tested,[3]; LEV alone 800 mg/kg,0/12
same,# rotarod motor impairment/# tested,"[3]; LEV alone 800 mg/kg i.p., 44 mA group",0/12
